According to patent US11655244B2, “Carbazole compounds and methods of use thereof” (GSNO Therapeutics, Inc, priority 2017, dated 2023):
Where two headings read alike, the source gives them in different places.

What was measured:
[1] = test system: collagen induced arthritis model in DBAJ1 mice; test: Collagen induced arthritis model; assay type: in vivo; settings: 15 mg/kg daily from day 8
Method: Compound 17 was tested in a collagen induced arthritis model in DBAJ1 mice. Compound 17 was started on day 8 when the arthritis was established, as in a therapeutic model, and the DBAJ1 mice were then treated daily with Compound 17 (15 mg/kg). Mice were challenged with bovine collagen II+complete adjuvant at day 0. Clinical scores were determined as follows: 0=normal; 0.5=erythema and edema in only one digit; 1=erythema and mild edema of the footpad, or ankle or two to five digits; 2=erythema and moderate edema of two joints (footpad, ankle, two to five digits); 3=erythema and severe edema of the entire paw; 4=reduced swelling and deformation leading to an incapacitated limb.
Measurement of anti-collagen antibodies in the collagen induced arthritis model of rheumatoid arthritis in DBAJ1 Mice was by an anti-collagen ELISA kit by standard methods.

[2] = test system: db/db mice; test: Insulin and glucose tolerance tests, survival and 8-isoprostane in db/db diabetic mice; assay type: in vivo
Method: Compound 17 was studied in 6 week intra-gastric insulin and glucose tolerance tests in db/db mice dosed orally with Compound 17 at 10 mg/kg for 6 weeks qd. The male db/db mice were started on study at 6 weeks of age and were given a 60% high fat diet to increase the diabetic phenotype.
(§1) Vascular reactivity: Db/db mouse aorta segments were equilibrated in oxygenated PBS (95% O2 and 5% CO2) at 37° C. Following equilibration, 1 μM phenylephrine was added to each ring for submaximal contraction. After stabilization, Compound 17 was added to the rings and the effect on the muscle tone of the aorta segments was monitored with a tensometer as dose-responses from 10^-8 M to 10^-5 M for acetylcholine (“Ach”) and A23187 (5-(methylamino)-2-({(2R,3R,6S,8S,9R,11R)-3,9,11-trimethyl-8-[(1S)-1-methyl-2-oxo-2-(1H-pyrrol-2-yl)ethyl]-1,7-dioxaspiro[5.5]undec-2-yl}methyl)-1,3-benzoxazole-4-carboxylic). 8-Isoprostane was measured in plasma and heart homogenates by standard Elisa methods.

[3] = test system: IL-6; test: LPS/cytokine assay (mouse inflammation assay), IL-6; assay type: in vivo, CD-1 male mice
Method: Table 2b also includes additional biological data of compounds described herein. The LPS/cytokine Assay was carried out in CD-1 male mice. The assay measured the level of various cytokines, including IL-6, IL-17, and IL-23, after induction by bacterial liposaccharide (LPS). Compounds were dosed by IP or IV routes of administration at varying times before and after LPS and the cytokine concentrations were measured at varying times, typically 6 hrs, after LPS by standard methods using ELISA kits.
BIOLOGICAL TESTING: Compounds 10 and 17 from Table 1 were tested in a mouse inflammation assay. Briefly, CD-1 mice were dosed with compound, 12 hrs before injecting mice I.P. with the potent cytokine inducer, bacterial lipopolysaccharide (LPS). The mice were euthanized 6 hrs after the LPS was injected and their serum prepared by standard methods. The concentration of IL-6 in the serum of each experimental animal was measured using an IL-6 ELISA kit from Enzo. The compounds tested were active.
This LPS/cytokine assay was carried out in healthy mice and measured the level of cytokine IL-6, IL-17, and 23 induction by LPS. Compounds are dosed (either orally (“p.o.”) or intravenously (“i.v.”) at varying times before and after LPS, and the cytokines are measured at varying times after LPS. The effect of the tested compounds (Table 5) on IL-6 release is shown in FIG. 7. The effect of the tested compounds (Table 6) on IL-17 an IL-23 release is shown in FIG. 11 and FIG. 12, respectively.

[4] = test system: Db/db mouse aorta segments; test: Vascular reactivity of aorta segments (tensometer); settings: db/db mice; vs vehicle
Method: as §1

[5] = target: T1, GSNOR enzyme (Homo sapiens, UniProt P11766); test: GSNOR inhibition assay (rate of NADH consumption, 340 nm absorbance); assay type: biochemical; settings: Table 2b; read-out: IC50 Micromolar
T1 sequence (P11766 whole entry): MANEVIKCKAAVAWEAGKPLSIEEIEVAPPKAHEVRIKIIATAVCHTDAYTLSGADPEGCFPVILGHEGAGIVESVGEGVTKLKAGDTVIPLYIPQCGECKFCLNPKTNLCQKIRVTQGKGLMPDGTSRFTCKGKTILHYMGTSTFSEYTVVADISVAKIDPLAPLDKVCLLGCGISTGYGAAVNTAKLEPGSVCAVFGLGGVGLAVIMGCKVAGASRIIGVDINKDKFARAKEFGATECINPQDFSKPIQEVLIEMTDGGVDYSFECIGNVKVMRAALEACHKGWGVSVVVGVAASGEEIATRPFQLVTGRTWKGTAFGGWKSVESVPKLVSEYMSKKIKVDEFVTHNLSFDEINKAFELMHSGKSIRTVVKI

[6] = target: T1, GSNOR enzyme; test: as above; assay type: biochemical
Method: The following compounds were also prepared based on the methods described herein, using the appropriate starting materials. Table 2a and Table 2b also provides the % GSNOR inhibition at 20 μM of compounds described herein. […] The buffer was 100 mM phosphate buffer (pH 7.4.) The rate of NADH consumption for each well was determined by ultraviolet spectroscopy. Plates were read on a Molecular Devices Spectra Max UV/Visible Spectrophotometer/plate reader and the change in 340 nm absorbance at 25° C. was recorded for each well at 10 sec intervals over the duration of the recording period (2˜5 minutes). The rate was measured from the linear portion of the curve. Final test compound concentration was 20 μM. The mean % inhibition from 3 test compound wells and 5 control wells was measured as the percentage of the mean no compound+enzyme−the mean no enzyme, no compound control.

Compound: NC(=O)CCn1c2ccc(-n3ccnc3)cc2c2ccc(CCC(=O)O)cc21 [Compound 17, 3-(imidazol-1(H)-yl)-7-(2-carboxylethyl)-9(H)-(2-aminocarbonylethyl) carbazole]
- arthritis (clinical score) [1]: inhibits arthritis
- production of anti-collagen antibodies ([1]; ELISA): inhibits production of anti-collagen antibodies
- insulin and glucose tolerances ([2]; 10 mg/kg orally qd for 6 weeks, 60% high fat diet): statistically significantly reduced insulin and glucose tolerances
- amount of F2-IsoPs in cardiac tissue (myocardial 8-isoprostane) ([2]; db/db mice, vs vehicle): significantly reduces
- increase of survival in severely debilitated diabetic mice ([2]; db/db mice, vs vehicle): 66%
- LPS/IL6 Lowest tested active ([3]; CD-1 male mice, IP or IV, cytokine typically 6 hrs after LPS): 0.03 mg/kg
- IL-6 in serum after LPS (mouse inflammation assay) ([3]; dosed 12 hrs before LPS I.P., serum 6 hrs after LPS): active
- vascular reactivity [4]: increased their vascular reactivity
- IC50 [5]: 1000 to 5000 nM
- inhibition at 20 µM ([6]; Table 2a, test compound 20 μM, pH 7.4, 25° C., read-out: % Inhibit. at 20 μM): 92.8%
- inhibition at 20 µM ([6]; Table 2b, test compound 20 uM, read-out: % GSNOR Inhibition at 20 uM): 92.8%
